US5589500A, “Substituted 1,1,2-triphenylbutenes and their use in the treatment of cancer” (priority 1992, dated 1996)
Where two headings read alike, the source gives them in different places.

How the values were obtained:
oestrogen receptor = conditions: rat uterine cytosol competitive binding assay; J. Med. Chem. 25, 167-171 (1982); cited from earlier work
[1] = system: MCF-7 human breast cancer cell line; experiment: Short term in vitro cytotoxicity against MCF-7 human breast cancer cell line; conditions: MCF7, read-out: Short Term in vitro cytotoxicity MCF-7 IC50 ± SD
Method: For some compounds, cytotoxicity against the MCF-7 human breast cancer cell line was determined.

[2] = molecular target: calmodulin dependent cAMP-PDE (Homo sapiens, UniProt P0DP23); experiment: Antagonism of calmodulin dependent cAMP-PDE (inhibiting the activation of cyclic AMP phosphodiesterase by calmodulin); assay type: biochemical
[3] = system: receptor from calf uterine cytosol; conditions: calf uterine cytosol (oestradiol = 100); J. Med. Chem. 32, 2527-2533 (1989); cited from earlier work
rat uterine receptor = conditions: Cancer Research 51, 5851-5858 (1991); cited from earlier work
oestrogen receptor (ER) = molecular target: T1, oestrogen receptor (ER) (Rattus norvegicus, UniProt P06211); experiment: Relative binding affinity for the oestrogen receptor, rat uterine cytosol competitive binding assay
T1 construct: from tissue; host or cells: rat uterine cytosol
T1 sequence (P06211 1-600): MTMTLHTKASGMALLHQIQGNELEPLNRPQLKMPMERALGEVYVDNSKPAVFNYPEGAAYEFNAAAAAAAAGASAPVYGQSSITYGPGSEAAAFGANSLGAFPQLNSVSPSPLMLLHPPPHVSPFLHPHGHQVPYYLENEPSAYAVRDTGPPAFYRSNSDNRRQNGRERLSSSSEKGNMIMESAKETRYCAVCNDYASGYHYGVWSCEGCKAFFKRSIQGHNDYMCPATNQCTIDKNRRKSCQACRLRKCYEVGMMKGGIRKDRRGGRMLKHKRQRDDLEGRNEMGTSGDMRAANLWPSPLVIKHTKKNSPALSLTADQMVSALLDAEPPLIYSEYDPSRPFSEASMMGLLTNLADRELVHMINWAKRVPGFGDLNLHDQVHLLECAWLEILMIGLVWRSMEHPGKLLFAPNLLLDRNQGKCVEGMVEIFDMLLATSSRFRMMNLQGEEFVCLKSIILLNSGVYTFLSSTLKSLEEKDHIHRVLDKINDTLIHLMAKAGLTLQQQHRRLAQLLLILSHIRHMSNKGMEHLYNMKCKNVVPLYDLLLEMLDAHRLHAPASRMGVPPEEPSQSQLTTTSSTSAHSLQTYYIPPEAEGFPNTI
Method: For some compounds, cytotoxicity against the MCF-7 human breast cancer cell line was determined. The test methods used were those described by M. G. Rowlands et al., Biochemical Pharmacology 40, 283-289 (1990). The relative binding offinity (RBA) for the oestrogen receptor (ER) was measured in a rat uterine cystosol competitive binding assay as described by A. E. Wakeling, 1987 (Chapter 7 p219-236 in "STEROID HORMONES--A PRACTICAL APPROACH" Eds B. Green and R. E. Leake, IRL Press Ltd, Oxford, UK).

[4] = ± SD, read-out: Antagonism of calmodulin dependent cAMP-PDE IC50 ± SD

Row | SMILES | binding affinity for the oestrogen receptor compared with pyrrolidino tamoxifen itself (n=2) (oestrogen receptor) | IC50 [1] [nM] | IC50 [2, 4] [nM] | RBA with receptor from calf uterine cytosol [3] | RBA for rat uterine receptor (rat uterine receptor) | IC50 [2] [nM] | Binding affinity for ER, RBA (oestrogen receptor (ER))
1 | CC/C(=C(\c1ccccc1)c1ccc(OCCCN2CCCC2)cc1)c1ccccc1 | lower binding affinity for the oestrogen receptor |  |  |  |  |  | 
2 | CC/C(=C(\c1ccc(I)cc1)c1ccc(OCCN(C)C)cc1)c1ccccc1 [4-iodotamoxifen] |  | 7630 ± 60 | 2300 ± 420 | 5 | 12.5 |  | 
3 | C[C@]12CC[C@@H]3c4ccc(O)cc4CC[C@H]3[C@@H]1CC[C@@H]2O [17β-estradiol] |  |  |  | 100 |  |  | 
4 | CC/C(=C(\c1ccc(I)cc1)c1ccc(OCCN2CCCC2)cc1)c1ccccc1 [Idoxifene] |  | 7270 ± 380 | 1450 ± 80 | 5 | 12.5 |  | 
5 | CC/C(=C(\c1ccccc1)c1ccc(OCCN(C)C)cc1)c1ccccc1 [Tamoxifen] |  | 14000 ± 1000 |  | 1 | 5 | 6750 ± 1060 | 
6 | CC/C(=C(\c1ccc(I)cc1)c1ccc(OCCCN2CCCC2)cc1)c1ccccc1 [n = 3, NR^1 = R^2 = pyrrolidino, E-1-(4-(3-(N-pyrrolidino)propoxy)phenyl)-1-(4-iodophenyl)-2-phenyl-1-butene] |  | 4500 ± 70 | 1110 ± 70 |  |  |  | 23
7 | CC/C(=C(\c1ccc(I)cc1)c1ccc(OCCCN(C)C)cc1)c1ccccc1 [n = 3, R^1 = R^2 = CH3, E-1-(4-(3-(Dimethylamino)propoxy)phenyl)-1-(4-1iodophenyl)-2,phenyl-1-butene] |  |  | 2020 ± 170 |  |  |  | 
8 | CC/C(=C(\c1ccc(I)cc1)c1ccc(OCCCCN2CCCC2)cc1)c1ccccc1 [n = 4, NR^1 = R^2 = pyrrolidino, E-1(4-(4-(N-pyrrolidino)butoxy)phenyl)-1-(4-iodophenyl)-2-phenylbutene] |  | 3990 ± 600 | 1010 ± 80 |  |  |  | 9
9 | CC/C(=C(\c1ccc(I)cc1)c1ccc(OCCCCN(C)C)cc1)c1ccccc1 [n = 4, R^1 = R^2 = CH3, E-1-(4-(4-(Dimethylamino)butoxy)phenyl)-1-(4-iodophenyl)-2-phenyl-1-butene] |  |  | 2250 ± 180 |  |  |  | 25
10 | CC/C(=C(\c1ccc(I)cc1)c1ccc(OCCCCCCCCN2CCCC2)cc1)c1ccccc1 [n = 8, NR^1 = R^2 = pyrrolidino] |  |  | 260 ± 50 |  |  |  | 4
